Reference: article PMC7436049, “Combining In Silico and In Vitro Studies to Evaluate the Acetylcholinesterase Inhibitory Profile of Different Accessions and the Biomarker Triterpenes of Centella asiatica” (Molecules, 2020)
Like-named read-outs stand apart in the source and are kept apart here.

Target: T1, acetylcholinesterase from electrophorus electricus (Electrophorus electricus, UniProt O42275)
T1 construct: purchased Sigma–Aldrich (St. Louis, MO, USA)
Assay: biochemical
Settings: read-out: AChE inhibitory activity, IC50 Values (converted)
Description: All solvents were HPLC grade, purchased from Merck (Darmstadt, Germany). […] Sodium monobasic […] were purchased from Merck (Darmstadt, Germany), and acetylcholinesterase from electrophorus electricus, 5,5′-Dithiobis (2-nitrobenzoic acid), and […] were obtained from Sigma–Aldrich (St. Louis, MO, USA).
The AChE inhibitory activity was evaluated using Ellman’s method, as reported previously. Each sample (20 µL of 5 mg/mL in DMSO) was dispensed in triplicate into a 96-well microplate and mixed with 190 µL of DTNB, 20 µL of substrate (ATCI). The control wells contained 2% of DMSO instead of the extract. The enzymatic activity was measured at 412 nm every 30 s intervals for 3 min. The buffer solution was used as negative control.
The percentage inhibition (%I) of each sample and the positive control (physostigmine) was calculated using the formula:%I: [(Ac − As)/(Ac)] × 100(1) where (%I): Percentage inhibition • Ac: Absorbance of negative control • As: Absorbance of sample
The experiments were expressed as the mean ± standard error of the mean (SEM) in triplicates.

[1] = Ellman's method, 412 nm, mean ± SEM, triplicates

T1 sequence (O42275 24-633): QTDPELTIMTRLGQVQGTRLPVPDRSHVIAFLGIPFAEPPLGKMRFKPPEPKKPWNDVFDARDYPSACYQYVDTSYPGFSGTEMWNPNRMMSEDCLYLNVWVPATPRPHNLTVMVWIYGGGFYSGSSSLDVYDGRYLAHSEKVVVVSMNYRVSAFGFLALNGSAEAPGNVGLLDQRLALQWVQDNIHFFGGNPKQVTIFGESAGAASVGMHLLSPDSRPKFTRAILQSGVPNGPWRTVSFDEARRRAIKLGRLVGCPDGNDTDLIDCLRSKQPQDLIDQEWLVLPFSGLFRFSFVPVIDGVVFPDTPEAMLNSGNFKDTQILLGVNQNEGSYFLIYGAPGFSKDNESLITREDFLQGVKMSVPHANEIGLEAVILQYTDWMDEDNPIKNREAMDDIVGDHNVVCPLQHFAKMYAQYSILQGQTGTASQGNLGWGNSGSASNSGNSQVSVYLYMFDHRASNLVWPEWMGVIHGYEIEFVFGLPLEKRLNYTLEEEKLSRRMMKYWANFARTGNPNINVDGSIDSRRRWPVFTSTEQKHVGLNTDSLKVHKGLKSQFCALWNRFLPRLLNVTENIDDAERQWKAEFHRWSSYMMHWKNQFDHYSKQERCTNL

| Compound | IC50 [1] [µM] | IC50 [µM] |
| --- | --- | --- |
| C[C@H]1[C@H](C)CC[C@]2(C(=O)O)CC[C@]3(C)C(=CC[C@@H]4[C@@]5(C)C[C@@H](O)[C@H](O)[C@@](C)(CO)[C@@H]5CC[C@]43C)[C@H]12 [Asiatic acid, asiatic acid] | 30.8 | – |
| C[C@H]1[C@H](C)CC[C@]2(C(=O)O)CC[C@]3(C)C(=CC[C@@H]4[C@@]5(C)C[C@@H](O)[C@H](O)[C@@](C)(CO)[C@@H]5[C@H](O)C[C@]43C)[C@H]12 [Madecassic acid, madecassic acid] | 35.3 | – |
| C[C@H]1[C@H](C)CC[C@]2(C(=O)O[C@@H]3O[C@H](CO[C@@H]4O[C@H](CO)[C@@H](O[C@@H]5O[C@@H](C)[C@H](O)[C@@H](O)[C@H]5O)[C@H](O)[C@H]4O)[C@@H](O)[C@H](O)[C@H]3O)CC[C@]3(C)C(=CC[C@@H]4[C@@]5(C)C[C@@H](O)[C@H](O)[C@@](C)(CO)[C@@H]5[C@H](O)C[C@]43C)[C@H]12 [Madecassoside, madecassoside] | – | 38.1 |
